In brackets after ≈: the same amount, converted by molar mass. Entries after “also recorded” stand apart in the source; their conditions may differ.
Key:
Saturation solubility = format: physicochemical; conditions: water, thermodynamic from solid, ddH2O, 25° C., mean ± SD, BDL: Below detection limit
Experimental: Samples of 5 mg of compounds were added to 5 ml volumetric flasks containing ddH2O and shaken at 100 rpm in an incubator at 25° C. for 90 minutes. The resulting suspension was filtered through a 0.22 μm filter. The concentrations of compounds were determined spectrophotometrically at 256 nm. The saturation solubility of each sample was determined in triplicates and the mean value and standard deviation were reported.

HDAC3 = HDAC3 (Homo sapiens (Human), UniProt O15379); test: HDAC3 enzymatic kinetic assay; format: biochemical; conditions: 2 μM; 20 min, 40 min and 60 min
Experimental: HDAC3 enzymatic kinetic assay was performed according to standard Protocols (Fluorgenic HDAC3 assay kit, BPS Bioscience™). […] After incubation, assay developer was added to the samples and the absorbance was read at fluorogenic wavelength. The relative inhibition to HDAC3 activity in each sample was determined.

MDA-MB-231 cells = test: Cell proliferation and morphology by phase-contrast light microscopy; format: cell-based, human; conditions: MDA-MB-231, 12.5 μM, 72 h
Text: (FIG. 3A) MDA-MB-231 cells, (FIG. 3B) SW48 cells, (FIG. 3C) M10 cells.

HDAC1 = HDAC1 (Homo sapiens (Human), UniProt Q13547); test: HDACs 1-11 enzymatic inhibition by BPS Bioscience
Experimental: (§1) HDAC assay was performed according to standard Protocols (Fluorgenic HDACs 1-11 assay kit, BPS Bioscience™). […] After 0.5 h, assay developer was added to the samples and the absorbance was read at fluorogenic wavelength. The relative inhibition to HDACs 1, 2, 3, 4, 5, 6, 7, 8, 9, and 11 activities was determined in each sample. […] All of the compounds were dissolved in DMSO. The serial dilution of the compounds was first performed in 100% DMSO with the highest concentration at 1 mM. Each intermediate compound dilution (in 100% DMSO) would then get directly diluted 10× fold into assay buffer for an intermediate dilution of 10% DMSO in HDAC assay buffer and 5 μl of the dilution was added to a 50 μl reaction so that the final concentration of DMSO is 1% in all of the reactions. […] Fluorescence intensity was measured at an excitation of 360 nm and an emission of 460 nm using a Tecan Infinite M1000 microplate reader. […] The fluorescent intensity data were analyzed using the computer software, Graphpad Prism. […] The percent activity in the presence of each compound was calculated according to the following equation: % activity=(F−Fb)/(Ft−Fb), where F=the fluorescent intensity in the presence of the compound. […] The IC50 value was determined by the concentration causing a half-maximal percent activity.

HDAC2 = HDAC2 (Homo sapiens (Human), UniProt Q92769); test: HDACs 1-11 enzymatic inhibition by BPS Bioscience
Experimental: as §1

HDAC3/NCOR2 = HDAC3/NCOR2 (Homo sapiens (Human), UniProt O15379); test: HDACs 1-11 enzymatic inhibition by BPS Bioscience
Experimental: as §1

HDAC5 = HDAC5 (Homo sapiens (Human), UniProt Q9UQL6); test: HDACs 1-11 enzymatic inhibition by BPS Bioscience
Experimental: (§2) HDAC assay was performed according to standard Protocols (Fluorgenic HDACs 1-11 assay kit, BPS Bioscience™). […] After 0.5 h, assay developer was added to the samples and the absorbance was read at fluorogenic wavelength. The relative inhibition to HDACs 1, 2, 3, 4, 5, 6, 7, 8, 9, and 11 activities was determined in each sample. […] All of the compounds were dissolved in DMSO. The serial dilution of the compounds was first performed in 100% DMSO with the highest concentration at 1 mM. Each intermediate compound dilution (in 100% DMSO) would then get directly diluted 10× fold into assay buffer for an intermediate dilution of 10% DMSO in HDAC assay buffer and 5 μl of the dilution was added to a 50 μl reaction so that the final concentration of DMSO is 1% in all of the reactions. The enzymatic reactions for the HDAC enzymes were conducted in duplicate at 37° C. for 30 minutes in a 50 μl mixture containing HDAC assay buffer, 5 μg BSA, an HDAC substrate, a HDAC enzyme and a test compound. After enzymatic reactions, 50 μl of 2×HDAC Developer was added to each well for the HDAC enzymes and the plate was incubated at room temperature for an additional 15 minutes. Fluorescence intensity was measured at an excitation of 360 nm and an emission of 460 nm using a Tecan Infinite M1000 microplate reader. HDAC activity assays were performed in duplicate at each concentration. The fluorescent intensity data were analyzed using the computer software, Graphpad Prism. In the absence of the compound, the fluorescent intensity (Ft) in each data set was defined as 100% activity. In the absence of HDAC, the fluorescent intensity (Fb) in each data set was defined as 0% activity. The percent activity in the presence of each compound was calculated according to the following equation: % activity=(F−Fb)/(Ft−Fb), where F=the fluorescent intensity in the presence of the compound. […] The IC50 value was determined by the concentration causing a half-maximal percent activity.

HDAC6 = HDAC6 (Homo sapiens (Human), UniProt Q9UBN7); test: HDACs 1-11 enzymatic inhibition by BPS Bioscience
Experimental: as §2

HDAC8 = HDAC8 (Homo sapiens (Human), UniProt Q9BY41); test: HDACs 1-11 enzymatic inhibition by BPS Bioscience
Sequence of HDAC8 (Q9BY41 whole entry): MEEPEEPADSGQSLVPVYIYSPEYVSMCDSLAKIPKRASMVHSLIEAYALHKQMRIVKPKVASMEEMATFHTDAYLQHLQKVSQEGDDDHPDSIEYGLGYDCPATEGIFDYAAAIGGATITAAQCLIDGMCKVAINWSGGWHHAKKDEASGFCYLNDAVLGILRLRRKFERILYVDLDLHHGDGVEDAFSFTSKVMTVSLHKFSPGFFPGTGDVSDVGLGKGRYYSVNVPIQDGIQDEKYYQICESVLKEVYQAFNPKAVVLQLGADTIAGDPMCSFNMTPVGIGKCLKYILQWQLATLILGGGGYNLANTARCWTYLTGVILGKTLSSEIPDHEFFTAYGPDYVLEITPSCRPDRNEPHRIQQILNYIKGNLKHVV
Experimental: as §2

Sequence of HDAC6 (Q9UBN7 whole entry): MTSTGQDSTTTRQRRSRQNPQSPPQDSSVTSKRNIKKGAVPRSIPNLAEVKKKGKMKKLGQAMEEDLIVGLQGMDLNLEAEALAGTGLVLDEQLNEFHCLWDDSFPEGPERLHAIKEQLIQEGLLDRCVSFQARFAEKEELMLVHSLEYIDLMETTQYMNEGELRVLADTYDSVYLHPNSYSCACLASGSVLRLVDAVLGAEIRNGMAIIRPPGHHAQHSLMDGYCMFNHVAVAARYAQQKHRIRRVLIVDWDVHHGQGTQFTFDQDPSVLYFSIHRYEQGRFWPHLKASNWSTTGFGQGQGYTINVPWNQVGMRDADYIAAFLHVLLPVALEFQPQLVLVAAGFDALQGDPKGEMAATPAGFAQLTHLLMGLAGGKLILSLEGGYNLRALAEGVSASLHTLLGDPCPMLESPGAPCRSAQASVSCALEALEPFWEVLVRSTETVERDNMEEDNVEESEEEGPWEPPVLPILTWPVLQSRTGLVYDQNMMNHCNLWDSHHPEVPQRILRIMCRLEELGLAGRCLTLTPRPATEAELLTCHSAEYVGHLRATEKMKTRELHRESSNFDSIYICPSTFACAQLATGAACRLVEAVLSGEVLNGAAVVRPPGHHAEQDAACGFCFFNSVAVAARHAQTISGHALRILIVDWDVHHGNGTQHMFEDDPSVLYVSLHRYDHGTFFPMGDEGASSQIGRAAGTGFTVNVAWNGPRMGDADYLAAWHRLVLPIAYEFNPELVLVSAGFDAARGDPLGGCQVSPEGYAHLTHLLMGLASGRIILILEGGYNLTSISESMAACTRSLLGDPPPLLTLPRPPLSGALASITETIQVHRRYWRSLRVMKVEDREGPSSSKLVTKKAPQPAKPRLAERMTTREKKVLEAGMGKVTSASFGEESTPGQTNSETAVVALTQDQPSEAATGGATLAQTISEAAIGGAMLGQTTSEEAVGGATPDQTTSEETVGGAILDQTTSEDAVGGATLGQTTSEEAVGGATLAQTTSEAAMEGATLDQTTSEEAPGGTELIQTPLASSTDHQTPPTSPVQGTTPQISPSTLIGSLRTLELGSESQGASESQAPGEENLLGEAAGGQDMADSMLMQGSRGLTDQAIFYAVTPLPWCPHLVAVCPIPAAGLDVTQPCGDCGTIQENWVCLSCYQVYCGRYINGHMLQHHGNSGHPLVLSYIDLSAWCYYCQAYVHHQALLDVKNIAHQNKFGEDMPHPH
Sequence of HDAC5 (Q9UQL6 whole entry): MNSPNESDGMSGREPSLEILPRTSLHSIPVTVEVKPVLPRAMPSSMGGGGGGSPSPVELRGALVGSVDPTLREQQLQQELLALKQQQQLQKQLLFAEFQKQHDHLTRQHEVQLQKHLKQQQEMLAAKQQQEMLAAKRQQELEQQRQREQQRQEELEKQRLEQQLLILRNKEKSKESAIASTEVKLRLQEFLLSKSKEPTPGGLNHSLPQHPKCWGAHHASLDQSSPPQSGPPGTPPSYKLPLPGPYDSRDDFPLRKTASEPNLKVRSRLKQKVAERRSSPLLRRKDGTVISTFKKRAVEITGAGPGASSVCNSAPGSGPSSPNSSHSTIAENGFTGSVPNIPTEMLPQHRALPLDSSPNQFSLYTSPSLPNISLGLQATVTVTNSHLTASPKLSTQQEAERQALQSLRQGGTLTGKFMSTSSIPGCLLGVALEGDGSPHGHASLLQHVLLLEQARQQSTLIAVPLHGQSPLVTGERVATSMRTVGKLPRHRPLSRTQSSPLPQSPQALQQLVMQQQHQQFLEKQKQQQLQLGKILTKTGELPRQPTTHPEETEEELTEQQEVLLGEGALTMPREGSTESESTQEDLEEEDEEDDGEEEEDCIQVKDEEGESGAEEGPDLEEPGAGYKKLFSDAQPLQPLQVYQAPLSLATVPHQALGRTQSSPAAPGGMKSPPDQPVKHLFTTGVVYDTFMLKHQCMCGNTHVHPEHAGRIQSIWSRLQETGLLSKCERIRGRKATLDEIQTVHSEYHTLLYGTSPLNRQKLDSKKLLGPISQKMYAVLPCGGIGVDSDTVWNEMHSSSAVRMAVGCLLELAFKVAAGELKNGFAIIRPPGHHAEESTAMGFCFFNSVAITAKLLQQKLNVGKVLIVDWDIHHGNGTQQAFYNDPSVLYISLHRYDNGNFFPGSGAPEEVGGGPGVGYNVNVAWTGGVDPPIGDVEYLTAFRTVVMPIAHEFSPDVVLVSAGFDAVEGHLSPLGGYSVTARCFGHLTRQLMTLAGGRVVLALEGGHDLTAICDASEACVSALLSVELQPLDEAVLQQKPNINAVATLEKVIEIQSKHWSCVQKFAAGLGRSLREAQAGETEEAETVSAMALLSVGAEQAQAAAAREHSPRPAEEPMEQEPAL
Sequence of HDAC3 (O15379 whole entry): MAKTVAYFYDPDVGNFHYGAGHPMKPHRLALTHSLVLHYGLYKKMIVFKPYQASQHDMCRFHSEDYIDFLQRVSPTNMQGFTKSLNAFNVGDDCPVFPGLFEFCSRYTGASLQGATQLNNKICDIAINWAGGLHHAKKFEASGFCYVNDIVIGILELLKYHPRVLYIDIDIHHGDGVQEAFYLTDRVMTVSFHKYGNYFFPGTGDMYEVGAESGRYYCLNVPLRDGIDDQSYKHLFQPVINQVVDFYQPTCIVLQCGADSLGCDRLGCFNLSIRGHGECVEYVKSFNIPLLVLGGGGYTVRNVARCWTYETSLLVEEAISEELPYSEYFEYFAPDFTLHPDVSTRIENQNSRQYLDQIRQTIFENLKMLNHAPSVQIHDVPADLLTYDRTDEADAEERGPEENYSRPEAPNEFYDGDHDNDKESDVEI
Sequence of HDAC3 (Q9Y618 395-489 partner): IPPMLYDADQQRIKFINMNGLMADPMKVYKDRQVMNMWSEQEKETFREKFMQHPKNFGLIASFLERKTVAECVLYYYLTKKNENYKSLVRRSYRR
Sequence of HDAC2 (Q92769 whole entry): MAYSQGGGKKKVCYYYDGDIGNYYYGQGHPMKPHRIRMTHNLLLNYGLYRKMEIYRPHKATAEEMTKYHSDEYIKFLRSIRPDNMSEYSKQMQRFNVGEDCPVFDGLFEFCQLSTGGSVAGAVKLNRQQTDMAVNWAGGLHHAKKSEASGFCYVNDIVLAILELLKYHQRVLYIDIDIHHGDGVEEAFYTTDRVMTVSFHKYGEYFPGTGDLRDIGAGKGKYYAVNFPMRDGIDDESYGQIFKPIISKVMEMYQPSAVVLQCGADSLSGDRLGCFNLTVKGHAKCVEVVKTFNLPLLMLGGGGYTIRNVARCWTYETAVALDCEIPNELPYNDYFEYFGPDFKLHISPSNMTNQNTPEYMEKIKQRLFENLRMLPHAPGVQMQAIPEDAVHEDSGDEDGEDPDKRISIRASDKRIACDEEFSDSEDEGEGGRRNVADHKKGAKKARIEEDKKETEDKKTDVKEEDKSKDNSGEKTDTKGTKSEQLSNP
Sequence of HDAC1 (Q13547 whole entry): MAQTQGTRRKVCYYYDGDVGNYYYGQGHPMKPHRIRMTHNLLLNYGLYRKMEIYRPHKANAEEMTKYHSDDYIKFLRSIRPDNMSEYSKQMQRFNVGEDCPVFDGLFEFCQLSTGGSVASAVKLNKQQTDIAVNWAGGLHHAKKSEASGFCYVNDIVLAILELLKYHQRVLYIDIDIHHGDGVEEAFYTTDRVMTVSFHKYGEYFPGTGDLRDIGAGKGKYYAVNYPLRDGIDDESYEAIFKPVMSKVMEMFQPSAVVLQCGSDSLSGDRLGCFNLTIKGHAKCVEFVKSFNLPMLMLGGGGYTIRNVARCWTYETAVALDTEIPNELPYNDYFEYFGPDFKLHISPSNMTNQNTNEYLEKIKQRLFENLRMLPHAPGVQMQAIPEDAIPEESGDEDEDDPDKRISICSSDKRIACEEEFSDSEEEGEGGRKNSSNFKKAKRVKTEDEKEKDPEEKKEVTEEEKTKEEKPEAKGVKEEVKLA
Sequence of HDAC3/NCOR2 (O15379 whole entry): as the sequence (O15379 whole entry) above
Sequence of HDAC3/NCOR2 (Q9Y618 395-489 partner): as the sequence (Q9Y618 395-489 partner) above

solubility at 90 min (Saturation solubility): 33.6 µg/mL (≈ 82.9 µM) | IC50 (HDAC1): 390 nM | IC50 (HDAC2): 910 nM | IC50 (HDAC3/NCOR2): 730 nM | IC50 (HDAC5): > 10000 nM | IC50 (HDAC6): > 10000 nM | IC50 (HDAC8): > 10000 nM
Structure (SMILES): Cc1ccc(/C=C/CC(=O)Nc2ccc(C(=O)Nc3ccc(F)cc3N)nc2)cn1 [GNTbm-02, 5-((E)-4-(6-methylpyridin-3-yl)but-3-enamido)-N-(2-amino-4-fluorophenyl)pyridine-2-carboxamide]
Inhibition of HDAC 3 enzyme activities (kinetics) (HDAC3): stronger inhibition of HDAC 3 enzyme activities than Entinostat; also recorded: stronger inhibition of HDAC 3 enzyme activities than GNTbm-01 | Inhibition of cell proliferation (MDA-MB-231 cells): significantly inhibiting cell proliferation | HDAC5 Inhibition at 10 μM (HDAC5; 10 μM): not inhibited; also recorded: No Inhibition at 10 μM | HDAC6 Inhibition at 10 μM (HDAC6; 10 μM): not inhibited; also recorded: No Inhibition at 10 μM | HDAC8 Inhibition at 10 μM (HDAC8; 10 μM): not inhibited; also recorded: No Inhibition at 10 μM

From US11672788B2, “Histone deacetylase inhibitors for immunomodulation in tumor microenvironment” (GREAT NOVEL THERAPEUTICS BIOTECH & MEDICALS CORPORATION, priority 2020, dated 2023)
